Biological target: T1, NKCC2 (Homo sapiens, UniProt Q13621)
T1 construct: host or cells: HEK293
T1 sequence (Q13621 1-1099): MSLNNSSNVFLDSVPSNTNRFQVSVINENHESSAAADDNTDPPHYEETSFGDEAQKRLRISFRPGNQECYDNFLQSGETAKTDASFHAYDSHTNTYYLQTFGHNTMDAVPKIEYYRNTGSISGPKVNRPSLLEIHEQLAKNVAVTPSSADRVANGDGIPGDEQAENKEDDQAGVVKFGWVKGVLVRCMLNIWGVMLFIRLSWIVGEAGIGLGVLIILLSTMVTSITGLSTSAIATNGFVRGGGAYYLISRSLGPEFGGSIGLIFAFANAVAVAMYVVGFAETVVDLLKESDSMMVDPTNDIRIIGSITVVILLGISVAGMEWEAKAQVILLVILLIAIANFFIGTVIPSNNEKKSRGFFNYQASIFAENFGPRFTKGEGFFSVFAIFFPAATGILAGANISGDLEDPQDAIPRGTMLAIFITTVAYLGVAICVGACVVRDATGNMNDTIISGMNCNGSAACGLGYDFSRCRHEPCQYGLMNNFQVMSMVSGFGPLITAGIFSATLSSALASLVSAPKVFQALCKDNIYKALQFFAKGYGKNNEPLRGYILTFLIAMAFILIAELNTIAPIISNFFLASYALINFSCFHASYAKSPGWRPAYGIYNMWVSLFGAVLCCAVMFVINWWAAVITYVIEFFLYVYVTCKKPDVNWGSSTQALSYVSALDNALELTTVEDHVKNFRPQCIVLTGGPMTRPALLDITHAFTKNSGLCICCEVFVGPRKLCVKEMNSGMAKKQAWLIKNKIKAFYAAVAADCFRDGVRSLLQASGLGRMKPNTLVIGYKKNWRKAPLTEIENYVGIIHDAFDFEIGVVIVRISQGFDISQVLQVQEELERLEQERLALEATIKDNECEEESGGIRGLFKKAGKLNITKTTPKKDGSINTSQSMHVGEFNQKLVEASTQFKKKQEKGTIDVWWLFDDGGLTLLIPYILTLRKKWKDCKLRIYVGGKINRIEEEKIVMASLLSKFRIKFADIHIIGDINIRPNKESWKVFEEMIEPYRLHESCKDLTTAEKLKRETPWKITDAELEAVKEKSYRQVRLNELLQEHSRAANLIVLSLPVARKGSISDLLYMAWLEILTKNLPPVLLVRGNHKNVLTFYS
Test: Cl- influx assay in NKCC2-transfected HEK293 cells
Assay type: cell-based
Details: 10 μM
Procedure: HEK293 cells were cultured in Dulbecco’s modified Eagle’s medium (DMEM) supplemented with 10% fetal bovine serum, 1% L-glutamine, 100 U/mL penicillin, and 100 μg/mL streptomycin and maintained at 37 °C in a 5% CO2 humidified atmosphere. […] To assess KCC2 activity (Tl influx assay), cells were transfected with 8 μg of KCC2[54] subcloned in the PRK5 plasmid or mock control (empty vector) and 16 μL of Lipofectamin 2000. After 4 h, the cells were collected and plated in 96-well black-walled, clear-bottomed plates at a density of 2.5 × 10^4. After 48 h, cells were used for the Cl^– or Tl influx assays. All reagents were purchased from Life Technologies, unless otherwise specified.
After 30 min of incubation, plates were loaded into a Victor 3V (PerkinElmer) multiplate reader equipped with an automatic liquid injector system, and fluorescence of Cl^–-sensitive mbYFPQS was recorded with excitation at 485 nm and emission at 535 nm. For each well, fluorescence was first recorded for 20 s of the baseline and for 60 s after delivery of a NaCl concentrated solution (74 mM final concentration in the assay well). Fluorescence of Cl^–-sensitive mbYFPQS is inversely correlated to the intracellular Cl^– concentration;[53] therefore, chloride influx into the cells determined a decrease in mbYFPQS fluorescence. […]

CN(C)S(=O)(=O)c1cc(C(=O)O)c(O)cc1NCCCCCCCC(F)(F)F [Compound 40, 5-(N,N-Dimethylsulfamoyl)-2-hydroxy-4-((8,8,8-trifluorooctyl)amino)benzoic Acid]
inhibition of NKCC2 in the Cl- influx assay: did not show any significant inhibition

Reference: publication PMC8311653, “Design, Synthesis, In Vitro and In Vivo Characterization of Selective NKCC1 Inhibitors for the Treatment of Core Symptoms in Down Syndrome” (Journal of Medicinal Chemistry, 2021)
